Measured values from article PMC6017830, “Furan- and Thiophene-2-Carbonyl Amino Acid Derivatives Activate Hypoxia-Inducible Factor via Inhibition of Factor Inhibiting Hypoxia-Inducible Factor-1” (Molecules : A Journal of Synthetic Chemistry and Natural …, 2018).

Key:
[1] = tested on: HIF-HRE transcriptional activity in SKN:HRE-MLuc cells (reflects FIH-1 inhibition); test: HIF activity under hypoxia, HRE-MLuc luciferase reporter assay; type: cell-based, human; settings: for activation at 100 µM / minimal effective concentration: Homo sapiens; for activation at 100 µM: read-out: 100 μM Activity (RLU intensity at 100 μM stimulation compared with the positive control DMOG); for minimal effective concentration: doses 100, 25, 6.3, 1.6 μM, DMOG 100 μM as positive control, read-out: 25% Activity (lower dose limit showing 25% of the RLU intensity of the positive control DMOG); for HIF activity (HRE-MLuc reporter), result in words: hypoxic conditions (3% O2), 24 h, reference compounds at 100 μM
Experimental: To evaluate HIF transactivation following FIH-1 inhibition […], we employed a luciferase reporter assay system in the human neuroblastoma cell line SK-N-BE(2)c. […] Hereafter these HRE reporter cells were designated SKN:HRE-MLuc cells.
SKN:HRE-MLuc (4 × 10^4) were incubated for 24 h on a 96 well culture plate. The medium was replaced with complete media and the test compounds (100, 25, 6.3 and 1.6 μM). DMSO (0.1%) was used as a vehicle control, DMOG (100 μM) and FG4592 (100 μM) were used as a PHDs or FIH-1 inhibitor. The cells were incubated for 24 h under a humidified atmosphere of 5% CO2 and 3% O2 at 37 °C. After incubation, the MLuc activity in culture media was measured with luciferase substrate (Takara, Shiga, Japan) by LB960 luminometer (Berthold, Wildbad, Germany). The HIF activity was calculated as the MLuc intensity, based on the vehicle and positive controls. The lower limit dose out of 100 μM, 25 μM, 6.3 μM, 1.6 μM was listed in Table 1 and Table 2, where 25% RLU intensity was measured using DMOG as a positive control.

[2] = tested on: SKN:HRE-MLuc cells; test: MTS assay (cellular toxicity); type: cell-based, human; settings: MTS assay
Text: Next, we evaluated the activation of HIF by furan- and thiophene-2-carbonyl amino acid derivatives using the evaluation methods described above. Simultaneously, we investigated cellular toxicity for those derivatives with a 3-(4,5-dimethylthiazol-2-yl)-5-(3-carboxymethoxyphenyl)-2-(4-sulfophenyl)-2H-tetrazolium (MTS) assay. To indicate cellular membrane permeability, the partition coefficients, which are frequently represented by calculated logP (clogP) are listed in Table 1 and Table 2.
Cellular toxicity was measured using the CellTiter 96® Aqueous One Solution Cell Proliferation Assay kit (Promega, Madison, WI, USA). The cells were stimulated with each compound and treated with the CellTiter solution. After incubation for 3 h, the absorbance of the solutions at 492 nm was measured by Multiskan FC (Thermo Fisher Scientific, Waltham, MS, USA). As a negative control, wells with culture media were used. Wells treated with DMSO (0.1%) were used as a positive control. The IC50 values were determined using these controls.

[3] = 100 μM, SKN:HRE-MLuc cells, 3% O2, 24 h
[4] = SKN:HRE-MLuc cells, 3% O2, 24 h

`COC(=O)[C@@H](Cc1ccccc1)NC(=O)c1ccc(C)o1` [Compound 8, (R)-Methyl (5-methylfuran-2-carbonyl)phenylalaninate] showed an activation at 100 µM [1, 3] of 2% and an IC50 ([2]; Homo sapiens) greater than 100 µM.

`COC(=O)[C@H](Cc1c[nH]c2ccccc12)NC(=O)c1cc2ccccc2s1` [Compound 43, (S)-Methyl (benzothiophene-2-carbonyl)tryptophanate] gave an activation at 100 µM [1, 3] of 0% and an IC50 ([2]; Homo sapiens) greater than 100 µM.

In the case of `O=C(N[C@@H](Cc1ccccc1)C(=O)O)c1ccc(-c2ccccc2)s1` [Compound 23, (S)-(5-Phenylthiophene-2-carbonyl)phenylalanine], the activation at 100 µM [1, 3] is reported as 0% and the IC50 ([2]; Homo sapiens) is reported as greater than 100 µM.

Work on `COC(=O)[C@H](C)NC(=O)c1ccc(-c2ccc(Oc3ccccc3)cc2)s1` [Compound 34, (S)-Methyl (5-(4-phenoxyphenyl)thiophene-2-carbonyl)alaninate] yielded an activation at 100 µM [1, 3] of 0% and an IC50 ([2]; Homo sapiens) greater than 100 µM.

For `Cc1ccc(C(=O)N[C@H](Cc2c[nH]c3ccccc23)C(=O)O)s1` [Compound 16, (R)-(5-methylthiophene-2-carbonyl)tryptophan], the activation at 100 µM [1, 3] was 30%, the minimal effective concentration [1, 4] was 100 µM and the IC50 ([2]; Homo sapiens) was greater than 100 µM.

In the case of `CCOC(=O)[C@H](Cc1ccccc1)NC(=O)c1ccc(-c2ccc(Oc3ccccc3)cc2)s1` [Compound 35, (S)-Ethyl (5-(4-phenoxyphenyl)thiophene-2-carbonyl)phenylalaninate], the activation at 100 µM [1, 3] is reported as 0% and the IC50 ([2]; Homo sapiens) is reported as greater than 100 µM.

`Cc1ccc(C(=O)N[C@@H](C)C(=O)O)s1` [Compound 12, (S)-(5-Methylthiophene-2-carbonyl)alanine] was tested, and the activation at 100 µM [1, 3] was 18% and the IC50 ([2]; Homo sapiens) was greater than 100 µM.

`O=C(N[C@@H](Cc1ccccc1)C(=O)O)c1ccc(-c2ccccc2)o1` [Compound 19, (S)-(5-Phenylfuran-2-carbonyl)phenylalanine] was tested, and the activation at 100 µM [1, 3] was 0% and the IC50 ([2]; Homo sapiens) was greater than 100 µM.

For `CCOC(=O)[C@H](Cc1c[nH]c2ccccc12)NC(=O)c1ccc(C)s1` [Compound 17, (S)-Ethyl (5-methylthiophene-2-carbonyl)tryptophanate], the activation at 100 µM [1, 3] was 49%, the minimal effective concentration [1, 4] was 100 µM and the IC50 ([2]; Homo sapiens) was greater than 100 µM.

`COC(=O)[C@H](Cc1c[nH]c2ccccc12)NC(=O)c1ccc(-c2ccccc2)s1` [Compound 25, (S)-Methyl (5-phenylthiophene-2-carbonyl)tryptophanate] showed an activation at 100 µM [1, 3] of 0% and an IC50 ([2]; Homo sapiens) greater than 100 µM.

Work on `COC(=O)CNC(=O)c1cccs1` [Compound 2, Methyl (thiophene-2-carbonyl)glycinate] yielded an activation at 100 µM [1, 3] of 0% and an IC50 ([2]; Homo sapiens) greater than 100 µM.

`COC(=O)[C@@H](Cc1ccccc1)NC(=O)c1ccc(C)s1` [Compound 14, (R)-Methyl (5-methylthiophene-2-carbonyl)phenylalaninate] was tested, and the activation at 100 µM [1, 3] was 0% and the IC50 ([2]; Homo sapiens) was greater than 100 µM.

`CCOC(=O)[C@@H](Cc1c[nH]c2ccccc12)NC(=O)c1ccc(C)s1` [Compound 18, (R)-Ethyl (5-methylthiophene-2-carbonyl)tryptophanate] gave an activation at 100 µM [1, 3] of 52%, a minimal effective concentration [1, 4] of 100 µM and an IC50 ([2]; Homo sapiens) greater than 100 µM.

`COC(=O)[C@@H](Cc1c[nH]c2ccccc12)NC(=O)c1ccco1` [Compound 4, (R)-Methyl (furan-2-carbonyl)tryptophanate] showed an activation at 100 µM [1, 3] of 0% and an IC50 ([2]; Homo sapiens) greater than 100 µM.

With “(R)-Ethyl (benzothiophene-2-carbonyl)phenylalaninate [Compound 42]” the “100 μM Activity (RLU intensity at 100 μM stimulation compared with the positive control DMOG)” value [1, 3] was 0% and the IC50 [2] was greater than 100 µM.

`COC(=O)[C@H](Cc1c[nH]c2ccccc12)NC(=O)c1ccco1` [Compound 3, (S)-Methyl (furan-2-carbonyl)tryptophanate] gave an activation at 100 µM [1, 3] of 0% and an IC50 ([2]; Homo sapiens) greater than 100 µM.

In the case of `CCOC(=O)[C@H](Cc1ccccc1)NC(=O)c1cc2ccccc2o1` [Compound 37, (S)-Ethyl (benzofuran-2-carbonyl)phenylalaninate], the activation at 100 µM [1, 3] is reported as 0% and the IC50 ([2]; Homo sapiens) is reported as greater than 100 µM.

For `Cc1ccc(C(=O)NCC(=O)O)s1` [Compound 11, (5-Methylthiophene-2-carbonyl)glycine], the activation at 100 µM [1, 3] was 23%, the minimal effective concentration [1, 4] was 25 µM and the IC50 ([2]; Homo sapiens) was greater than 100 µM.

In the case of `COC(=O)C(=O)N[C@H](Cc1ccccc1)C(=O)OC` [DM-NOFD, dimethyl N-oxalyl-D-phenylalanine, reference compound], the “HIF activity (HRE-MLuc reporter), result in words” value [1] is reported as “significantly enhanced HIF activity”.

For `CCOC(=O)[C@H](Cc1ccccc1)NC(=O)c1ccc(C)s1` [Compound 15, (S)-Ethyl (5-methylthiophene-2-carbonyl)phenylalaninate], the activation at 100 µM [1, 3] was 12%, the minimal effective concentration [1, 4] was 25 µM and the IC50 ([2]; Homo sapiens) was greater than 100 µM.

With `COC(=O)CNC(=O)c1ccco1` [Compound 1, Methyl (furan-2-carbonyl)glycinate] the activation at 100 µM [1, 3] was 20%, the minimal effective concentration [1, 4] was 25 µM and the “HIF activity (HRE-MLuc reporter), result in words” value [1] was “stabilized HIF and transactivated the HRE-driven MLuc reporter”. It also gave an IC50 ([2]; Homo sapiens) greater than 100 µM.

`CCOC(=O)[C@H](Cc1ccccc1)NC(=O)c1cc2ccccc2s1` [Compound 41, (S)-Ethyl (benzothiophene-2-carbonyl)phenylalaninate] gave an activation at 100 µM [1, 3] of 2% and an IC50 ([2]; Homo sapiens) greater than 100 µM.

Molecule `COC(=O)[C@H](Cc1ccccc1)NC(=O)c1ccc(-c2ccccc2)o1` [Compound 20, (S)-Methyl (5-phenylfuran-2-carbonyl)phenylalaninate] has an activation at 100 µM [1, 3] of 10% and an IC50 ([2]; Homo sapiens) greater than 100 µM.

`COC(=O)[C@@H](Cc1c[nH]c2ccccc12)NC(=O)c1ccc(C)o1` [Compound 10, (R)-Methyl (5-methylfuran-2-carbonyl)tryptophanate] gave an activation at 100 µM [1, 3] of 0%, a minimal effective concentration [1, 4] of 6.3 µM and an IC50 ([2]; Homo sapiens) greater than 100 µM.

For `C[C@H](NC(=O)c1ccc(-c2ccccc2)s1)C(=O)O` [Compound 21, (S)-(5-Phenylthiophene-2-carbonyl)alanine], the activation at 100 µM [1, 3] was 0% and the IC50 ([2]; Homo sapiens) was greater than 100 µM.

`CCOC(=O)[C@H](Cc1ccccc1)NC(=O)c1ccc(-c2ccc(-c3ccccc3)cc2)s1` [Compound 32, (S)-Ethyl (5-((1,1′-biphenyl)-4-yl)thiophene-2-carbonyl)phenylalaninate] was tested, and the activation at 100 µM [1, 3] was 0% and the IC50 ([2]; Homo sapiens) was greater than 100 µM.

In the case of `COC(=O)[C@H](Cc1ccccc1)NC(=O)c1ccc(-c2ccccc2)s1` [Compound 24, (S)-Methyl (5-phenylthiophene-2-carbonyl)phenylalaninate], the activation at 100 µM [1, 3] is reported as 7% and the IC50 ([2]; Homo sapiens) is reported as greater than 100 µM.

In the case of `COC(=O)[C@H](Cc1ccc(O)cc1)NC(=O)c1cc2ccccc2s1` [Compound 44, (S)-Methyl (benzothiophene-2-carbonyl)tyrosinate], the activation at 100 µM [1, 3] is reported as 0% and the IC50 ([2]; Homo sapiens) is reported as greater than 100 µM.

With `CCOC(=O)[C@H](C)NC(=O)c1ccc(C)s1` [Compound 13, (S)-Ethyl (5-methylthiophene-2-carbonyl)alaninate] the activation at 100 µM [1, 3] was 0% and the IC50 ([2]; Homo sapiens) was greater than 100 µM.

Work on `CCOC(=O)[C@H](C)NC(=O)c1ccc(-c2ccccc2)s1` [Compound 22, (S)-Ethyl (5-phenylthiophene-2-carbonyl)alaninate] yielded an activation at 100 µM [1, 3] of 16% and an IC50 ([2]; Homo sapiens) greater than 100 µM.

`COC(=O)[C@@H](Cc1c[nH]c2ccccc12)NC(=O)c1cccs1` [Compound 6, (R)-Methyl (thiophene-2-carbonyl)tryptophanate] gave an activation at 100 µM [1, 3] of 0% and an IC50 ([2]; Homo sapiens) greater than 100 µM.

With `COC(=O)[C@H](Cc1c[nH]c2ccccc12)NC(=O)c1cccs1` [Compound 5, (S)-Methyl (thiophene-2-carbonyl)tryptophanate] the activation at 100 µM [1, 3] was 0% and the IC50 ([2]; Homo sapiens) was greater than 100 µM.

Work on `COC(=O)[C@H](Cc1c[nH]c2ccccc12)NC(=O)c1ccc(-c2ccc(Oc3ccccc3)cc2)s1` [Compound 36, (S)-Methyl (5-(4-phenoxyphenyl)thiophene-2-carbonyl)tryptophanate] yielded an activation at 100 µM [1, 3] of 0% and an IC50 ([2]; Homo sapiens) greater than 100 µM.

`COC(=O)CNC(=O)c1ccc(-c2ccc(Oc3ccccc3)cc2)s1` [Compound 33, Methyl (5-(4-phenoxyphenyl)thiophene-2-carbonyl)glycinate] showed an activation at 100 µM [1, 3] of 0% and an IC50 ([2]; Homo sapiens) greater than 100 µM.

For `COC(=O)CNC(=O)c1cc2ccccc2s1` [Compound 39, Methyl (benzothiophene-2-carbonyl)glycinate], the activation at 100 µM [1, 3] was 13% and the IC50 ([2]; Homo sapiens) was greater than 100 µM.

`CCOC(=O)[C@H](C)NC(=O)c1cc2ccccc2s1` [Compound 40, (S)-Ethyl (benzothiophene-2-carbonyl)alaninate] gave an activation at 100 µM [1, 3] of 0% and an IC50 ([2]; Homo sapiens) greater than 100 µM.
